Laboratory results published in patent publication US4843070A, “Substituted thiazetoquinoline-3-carboxylic acids and pharmaceutically acceptable salts thereof” (priority 1986, dated 1989).
Values after ≈ are worked out from the molar mass of the structure shown. Where two headings read alike, the source gives them in different places.

Tests used:
Assay type in all cases: cell-based
S. aureus 209-P JC = experiment: MIC by agar plate dilution method, S. aureus 209-P JC; settings: Staphylococcus aureus, read-out: minimum inhibitory concentration (MIC)
Protocol: (§1) Test method: The MIC was measured by an agar plate dilution method in accordance with a standard method of Japan Chemotherapeutic Society (cf. Nippon Kagaku Ryoho Gakkaishi, 29(1), 76-79, 1981). Thus, the organisms incubated at 37° C. for 18 hours using sensitivity test broth (Nissei) was diluted to 10^6 CFU/ml using the same broth. […] As a control, enoxacin and ofloxacin were used in Tests 1 and 2, respectively.
(§2) The numbers of the inoculated bacteria were 10^6 in all cases and the unit of the MIC was micrograms/ml.

S. aureus Smith = experiment: MIC by agar plate dilution method, S. aureus Smith; settings: Staphylococcus aureus, read-out: minimum inhibitory concentration (MIC)
Protocol: as §1, §2

M. luteus ATCC 9341 = experiment: MIC by agar plate dilution method, M. luteus ATCC 9341; settings: Micrococcus luteus, read-out: minimum inhibitory concentration (MIC)
Protocol: as §1, §2

B. subtilis ATCC 6633 = experiment: MIC by agar plate dilution method, B. subtilis ATCC 6633; settings: Bacillus subtilis, read-out: minimum inhibitory concentration (MIC)
Protocol: as §1, §2

E. coli NIHJ JC-2 = experiment: MIC by agar plate dilution method, E. coli NIHJ JC-2; settings: Escherichia coli, read-out: minimum inhibitory concentration (MIC)
Protocol: as §1, §2

E. coli KC-14 = experiment: MIC by agar plate dilution method, E. coli KC-14; settings: Escherichia coli, read-out: minimum inhibitory concentration (MIC)
Protocol: as §1, §2

K. pneumoniae K-1966 = experiment: MIC by agar plate dilution method, K. pneumoniae K-1966; settings: Klebsiella pneumoniae, read-out: minimum inhibitory concentration (MIC)
Protocol: as §1, §2

E. cloacae No. 1 = experiment: MIC by agar plate dilution method, E. cloacae No. 1; settings: Enterobacter cloacae, read-out: minimum inhibitory concentration (MIC)
Protocol: as §1, §2

S. marcescens IFO 3736 = experiment: MIC by agar plate dilution method, S. marcescens IFO 3736; settings: Serratia marcescens, read-out: minimum inhibitory concentration (MIC)
Protocol: as §1, §2

P. vulgaris HX-19 = experiment: MIC by agar plate dilution method, P. vulgaris HX-19; settings: Proteus vulgaris, HX19, Test 1, inoculum 10^6, 37° C., 18 hours, read-out: minimum inhibitory concentration (MIC)
Protocol: as §1, §2

S. flexneri = experiment: MIC by agar plate dilution method, S. flexneri; settings: Shigella flexneri, 18 hours, read-out: minimum inhibitory concentration (MIC)
Protocol: as §1, §2

P. aeruginosa E-2 = experiment: MIC by agar plate dilution method, P. aeruginosa E-2; settings: Pseudomonas aeruginosa, read-out: minimum inhibitory concentration (MIC)
Protocol: as §1, §2

A. calcoaceticus 54 = experiment: MIC by agar plate dilution method, A. calcoaceticus 54; settings: read-out: minimum inhibitory concentration (MIC)
Protocol: as §1, §2

S. epidermidis = experiment: MIC by agar plate dilution method, S. epidermidis; settings: Staphylococcus epidermidis, Test 2, inoculum 10^6, 37° C., 18 hours, read-out: minimum inhibitory concentration (MIC)
Protocol: as §1, §2

Proteus mirabilis 181 = experiment: MIC by agar plate dilution method, Proteus mirabilis 181; settings: Test 2; Proteus mirabilis 181; inoculum 10^6; 37° C., 18 hours; read-out: minimum inhibitory concentration (MIC)
Protocol: as §1, §2

[1] = Test 1, S. aureus 209-P JC, inoculum 10^6, 37° C., 18 hours
[2] = Test 1, S. aureus Smith, inoculum 10^6, 37° C., 18 hours
[3] = ATCC9341, Test 1, M. luteus ATCC 9341, inoculum 10^6, 37° C., 18 hours
[4] = ATCC6633, Test 1, B. subtilis ATCC 6633, inoculum 10^6, 37° C., 18 hours
[5] = NIHJJC2, Test 1, E. coli NIHJ JC-2, inoculum 10^6, 37° C., 18 hours
[6] = KC14, Test 1, E. coli KC-14, inoculum 10^6, 37° C., 18 hours
[7] = K1966, Test 1, K. pneumoniae K-1966, inoculum 10^6, 37° C., 18 hours
[8] = Test 1, E. cloacae No. 1, inoculum 10^6, 37° C., 18 hours
[9] = IFO3736, Test 1, S. marcescens IFO 3736, inoculum 10^6, 37° C., 18 hours
[10] = E2, Test 1, P. aeruginosa E-2, inoculum 10^6, 37° C., 18 hours
[11] = Acinetobacter calcoaceticus, Test 1, A. calcoaceticus 54, inoculum 10^6, 37° C., 18 hours
[12] = Test 2, S. aureus 209-P JC, inoculum 10^6, 37° C., 18 hours
[13] = ATCC9341, Test 2, M. luteus ATTC 9341, inoculum 10^6, 37° C., 18 hours
[14] = ATCC6633, Test 2, B. subtilis ATCC 6633, inoculum 10^6, 37° C., 18 hours
[15] = IFO3736, Test 2, S. Marcescens IFO 3736, inoculum 10^6, 37° C., 18 hours
[16] = E2, Test 2, P. aeruginosa E-2, inoculum 10^6, 37° C., 18 hours

Structure (SMILES) | MIC (S. aureus 209-P JC; [1]) | MIC (S. aureus Smith; [2]) | MIC (M. luteus ATCC 9341; [3]) | MIC (B. subtilis ATCC 6633; [4]) | MIC (E. coli NIHJ JC-2; [5]) | MIC (E. coli KC-14; [6]) | MIC (K. pneumoniae K-1966; [7]) | MIC (E. cloacae No. 1; [8]) | MIC (S. marcescens IFO 3736; [9]) | MIC (P. vulgaris HX-19) | MIC (S. flexneri; Test 1, inoculum 10^6, 37° C.) | MIC (P. aeruginosa E-2; [10]) | MIC (A. calcoaceticus 54; [11]) | MIC (S. aureus 209-P JC; [12]) | MIC (M. luteus ATCC 9341; [13]) | MIC (B. subtilis ATCC 6633; [14]) | MIC (E. coli NIHJ JC-2; NIHJJC2, 18 h) | MIC (K. pneumoniae K-1966; K1966, 18 h) | MIC (S. marcescens IFO 3736; [15]) | MIC (S. flexneri; Test 2, inoculum 10^6, 37° C.) | further results
CC1Sc2c(C(=O)O)c(=O)c3cc(F)c(N4CCSCC4)cc3n21 (stereo not drawn) [(6)] | 0.05 µg/mL (≈ 0.136 µM) | ≤ 0.0063 µg/mL | 1.56 µg/mL (≈ 4.26 µM) | ≤ 0.0063 µg/mL | 0.2 µg/mL (≈ 0.546 µM) | 0.05 µg/mL (≈ 0.136 µM) | 0.1 µg/mL (≈ 0.273 µM) | 0.39 µg/mL (≈ 1.06 µM) | 0.78 µg/mL (≈ 2.13 µM) | ≤ 0.0063 µg/mL | 0.1 µg/mL (≈ 0.273 µM) | 0.78 µg/mL (≈ 2.13 µM) | 0.2 µg/mL (≈ 0.546 µM) |  |  |  |  |  |  |  | 
CC1Sc2c(C(=O)O)c(=O)c3cc(F)c(N4CCN(Cc5ccc(N)cc5)CC4)cc3n21 (stereo not drawn) [Table 1 (10), 7-(4-(4-Aminobenzyl)-1-piperazinyl)-6-fluoro-1-methyl-4-oxo-4H-(1,3)thiazeto(3,2-a)quinoline-3-carboxylic acid] | 0.05 µg/mL (≈ 0.11 µM) | ≤ 0.0063 µg/mL | 0.39 µg/mL (≈ 0.858 µM) | ≤ 0.0063 µg/mL | 0.2 µg/mL (≈ 0.44 µM) | 0.05 µg/mL (≈ 0.11 µM) | 0.2 µg/mL (≈ 0.44 µM) | 0.39 µg/mL (≈ 0.858 µM) | 0.56 µg/mL (≈ 1.23 µM) | 0.1 µg/mL (≈ 0.22 µM) | 0.1 µg/mL (≈ 0.22 µM) | 3.13 µg/mL (≈ 6.89 µM) | 0.39 µg/mL (≈ 0.858 µM) |  |  |  |  |  |  |  | 
CC1Sc2c(C(=O)O)c(=O)c3cc(Cl)c(N4CCNCC4)cc3n21 (stereo not drawn) [(7)] | 0.1 µg/mL (≈ 0.273 µM) | 0.2 µg/mL (≈ 0.547 µM) | 1.56 µg/mL (≈ 4.26 µM) | 0.2 µg/mL (≈ 0.547 µM) | 0.05 µg/mL (≈ 0.137 µM) | 0.025 µg/mL (≈ 0.0683 µM) | 0.025 µg/mL (≈ 0.0683 µM) | 0.05 µg/mL (≈ 0.137 µM) | 0.1 µg/mL (≈ 0.273 µM) | 0.025 µg/mL (≈ 0.0683 µM) | 0.0125 µg/mL (≈ 0.0342 µM) | 1.56 µg/mL (≈ 4.26 µM) | 3.13 µg/mL (≈ 8.56 µM) |  |  |  |  |  |  |  | 
CC1Sc2c(C(=O)O)c(=O)c3cc(F)c(N4CCNCC4)cc3n21 (stereo not drawn) [Table 1 (13), 6-Fluoro-1-methyl-4-oxo-7-(1-piperazinyl)-4H-(1,3)thiazeto(3,2-a)quinoline-3-carboxylic acid] |  |  |  |  |  |  |  |  |  |  |  |  |  | 0.1 µg/mL (≈ 0.286 µM) | 1.56 µg/mL (≈ 4.46 µM) | 0.1 µg/mL (≈ 0.286 µM) | 0.0125 µg/mL (≈ 0.0358 µM) | 0.0125 µg/mL (≈ 0.0358 µM) | 0.05 µg/mL (≈ 0.143 µM) | 0.0125 µg/mL (≈ 0.0358 µM) | MIC (P. aeruginosa E-2; [16]): 0.2 µg/mL (≈ 0.572 µM); MIC (S. epidermidis): 3.13 µg/mL (≈ 8.96 µM); MIC (Proteus mirabilis 181): 0.025 µg/mL (≈ 0.0716 µM)
CC1Sc2c(C(=O)O)c(=O)c3cc(F)c(N4CCC(N)C4)cc3n21.CCS(=O)(=O)O (stereo not drawn) [Table 1 (8), 6-Fluoro-1-methyl-7-(3-amino-1-pyrrolidinyl)-4-oxo-4H-(1,3)thiazeto(3,2-a)quinoline-3-carboxylic acid ethanesulfonate] |  |  |  |  |  |  |  |  |  | ≤ 0.0063 µg/mL | ≤ 0.0063 µg/mL |  |  |  |  |  | 0.05 µg/mL | 0.025 µg/mL |  |  | MIC (S. aureus 209-P JC; 209P, 18 h): 0.025 µg/mL; MIC (S. aureus Smith; 18 h): 0.05 µg/mL; MIC (M. luteus ATCC 9341; ATCC9341, 18 h): 0.2 µg/mL; MIC (B. subtilis ATCC 6633; ATCC6633, 18 h): 0.05 µg/mL; MIC (E. coli KC-14; KC14, 18 h): ≤ 0.0063 µg/mL; MIC (E. cloacae No. 1; NO.1, 18 h): 0.025 µg/mL; MIC (S. marcescens IFO 3736; IFO3736, 18 h): 0.1 µg/mL; MIC (P. aeruginosa E-2; E2, 18 h): 0.1 µg/mL; MIC (A. calcoaceticus 54; Acinetobacter calcoaceticus, 54, 18 h): 0.78 µg/mL
O=C(O)c1c2n(c3cc(N4CCNCC4)c(F)cc3c1=O)C(c1ccc(F)cc1)S2 (stereo not drawn) [Table 1 (12), 6-Fluoro-1-(4-fluorophenyl)-4-oxo-7-(1-piperazinyl)-4H-(1,3)thiazeto(3,2-a)quinoline-3-carboxylic acid] |  |  |  |  |  |  |  |  |  |  |  |  |  | 0.2 µg/mL (≈ 0.466 µM) | 1.56 µg/mL (≈ 3.63 µM) | 0.05 µg/mL (≈ 0.116 µM) |  |  | 0.39 µg/mL (≈ 0.908 µM) | 0.025 µg/mL (≈ 0.0582 µM) | MIC (E. coli NIHJ JC-2; NIHJJC2, Test 2, E. coli NIHJ JC-2, inoculum 10^6, 37° C., 18 hours): 0.025 µg/mL (≈ 0.0582 µM); MIC (K. pneumoniae K-1966; K1966, Test 2, K. pneumoniae K-1966, inoculum 10^6, 37° C., 18 hours): 0.0125 µg/mL (≈ 0.0291 µM); MIC (P. aeruginosa E-2; [16]): 0.39 µg/mL (≈ 0.908 µM); MIC (S. epidermidis): 0.39 µg/mL (≈ 0.908 µM); MIC (Proteus mirabilis 181): 0.2 µg/mL (≈ 0.466 µM)
